Molecules are shown by their SMILES. “Also recorded” adds a separate entry of the source. Structures can show the parent of a compound that is named as a salt. Where two headings read alike, the source gives them in different places.

Data set [1] relates to CCI-induced static allodynia. The data set is described as follows: chronic constriction injury (CCI)-induced static allodynia (von Frey hairs) in rats. It is filed as in vivo, rat. Conditions: Biological Example 3; intrathecal administration 30 μg.
The subject of the next data set is MEK. The data set is described as follows: binding affinity of MEK inhibitors. Particulars: affinity of the MEK inhibitors of Biological Example 3.
The test system of data set [2] is CCI-induced static allodynia. Nature of the data set: chronic constriction injury (CCI)-induced static allodynia (von Frey hairs) in rats. It is filed as in vivo, rat. The method, then:
(§1) Male Sprague Dawley rats (250–300 g), obtained from Charles River, Margate, U.K.) were housed in groups of 3–6. All animals were kept under a 12 h light/dark cycle (lights on at 07 h 00 min) with food and water ad libitum. All experiments were carried out by an observer blind to drug treatments.
Animals were anaesthetised with 2% isoflurane 1:4 O2/N2O mixture maintained during surgery via a nose cone. The sciatic nerve was ligated as previously described by Bennett and Xie, 1988. Animals were placed on a homeothermic blanket for the duration of the procedure. After surgical preparation the common sciatic nerve was exposed at the middle of the thigh by blunt dissection through biceps femoris. Proximal to the sciatic trifurcation, about 7 mm of nerve was freed of adhering tissue and 4 ligatures (4-0 silk) were tied loosely around it with about 1 mm spacing. The incision was closed in layers and the wound treated with topical antibiotics.
(§2) PD 198306 and pregabalin were administered intrathecally in a volume of 10 μl using a 100 μl Hamilton syringe by exposing the spine of the rats under brief isoflurane anaesthesia. Injections were made into the intrathecal space between lumbar region 5–6 with a 10 mm long 27 gauge needle. Penetrations were judged successful if there was a tail flick response. The wound was sealed with an autoclip and rats appeared fully awake within 2–3 min following injection.
(§3) Mechanical hypersensitivity was measured using Semmes-Weinstein von Frey hairs (Stoelting, Ill., U.S.A.). Animals were placed into wire mesh bottom cages allowing access to the underside of their paws. Animals were habituated to this environment prior to the start of the experiment. Mechanical hypersensitivity was tested by touching the plantar surface of the animals right hind paw with von Frey hairs in ascending order of force (0.7, 1.2, 1.5, 2, 3.6, 5.5, 8.5, 11.8, 15.1 and 29 g) for up to 6 sec. Once a withdrawal response was established, the paw was re-tested, starting with the next descending von Frey hair until no response occurred. The highest force of 29 g lifted the paw as well as eliciting a response, thus represented the cut off point. The lowest amount of force required to elicit a response was recorded as the paw withdrawal threshold (PWT) in grams.
(§4) Static allodynia was assessed with von Frey hairs, before (baseline, BL) and 0.5 h, 1 h and 2 h after intrathecal or intraplantar administration of PD 198306 (1–30 μg, i.t.), vehicle (cremophor:ethanol:water, 1:1:8) or pregabalin (10 μg, i.t.). For oral administration experiments, static allodynia was assessed with von Frey hairs, before (baseline, BL) and 1 h after oral administration of PD 198306 (3–30 mg/kg, p.o.), vehicle (cremophor:ethanol:water, 1:1:8) or pregabalin (30 mg/kg, p.o.). Animals were administered again the same compounds on the following day, both in the morning and the afternoon. Static allodynia was assessed before and 1 h after the morning administration. In the afternoon static allodynia was assessed before, 1 h, 2 h and 3 h after administration for streptozocin treated animals. CCI animals were assessed before, 1 h and 2 h after administration
PD 198306 and pregabalin were synthesised at Parke-Davis (Ann Arbor, Mich., USA). PD 198306 was suspended in cremophor:ethanol:water (1:1:8) vehicle. Pregabalin was dissolved in water. Both compounds were administered orally, intrathecally or intraplantar in volumes of 1 ml/kg, 10 μl and 100 μl respectively. Streptozocin (Aldrich, UK) was dissolved in 0.9% w/v NaCl and administered intraperitoneally in a volume of 1 ml/kg.
Data were analysed using a Kruskall-Wallis ANOVA for non-parametric results, followed when significant by Mann-Whitney's t test vs vehicle group.
The animals and methods for developing chronic constriction injury in the rat, injecting test compounds, and evaluation of static allodynia were according to Example 2 above. […]

For data set [3], the system named is streptozocin-induced static allodynia. The data set is described as follows: streptozocin-induced static allodynia (von Frey hairs) in diabetic rats. It is filed as in vivo, rat. The method, then: Male Sprague Dawley rats (250–300 g), obtained from Bantin and Kingman, (Hull, U.K.) were housed in groups of 3. All animals were kept under a 12 h light/dark cycle (lights on at 07 h 00 min) with food and water ad libitum. All experiments were carried out by an observer blind to drug treatments.
Diabetes was induced in rats by a single i.p. injection of streptozocin (50 mg/kg) as described previously (Courteix et al., 1993).
as §3
PD 198306 [N-Cyclopropylmethoxy-3,4,5-trifluoro-2-(4-iodo-2-methyl-phenylamino)-benzamide] and Cl-1008 (pregabalin) were synthesized at Parke-Davis (Ann Arbor, Mich., USA). PD 198306 was suspended in cremophor:ethanol:water (1:1:8) vehicle. Pregabalin was dissolved in water. Both compounds were administered orally. Streptozocin (Aldrich, UK) was dissolved in 0.9% w/v NaCl and administered intraperitoneally. Drug administrations were made in a volume of 1 ml/kg.
The static allodynia data were analysed using a Kruskall-Wallis ANOVA for non-parametric results, followed when significant by Mann-Whitney's t test.
Static allodynia was assessed with von Frey hairs, before (baseline, BL) and 1 h after oral administration of PD 198306 (30 mg/kg, p.o.), vehicle (cremophor:ethanol:water, 1:1:8) or pregabalin (30 mg/kg, p.o.) (test). Animals were administered again the same compounds on the following day, both in the morning and the afternoon. Static allodynia was assessed only before and 1 h after the afternoon administration, in order to minimise the habituation of the animals to the testing conditions. Animals treated with pregabalin received water in the morning administration, in order to avoid the potential development of tolerance to the compound with repeated administration.
as §1, §2
as §4, with “Static allodynia was assessed before and 1 h after the morning administration. In the afternoon static allodynia was assessed before, 1 h, 2 h and 3 h after administration for streptozocin treated animals. CCI animals were assessed before, 1 h and 2 h after administration” left out

A further data set concerns colon 26 cells. The data set is described as follows: colon 26 cells IC50. It is filed as cell-based. Particulars: Mus musculus.
Where [4] appears, read: Biological Example 3, intrathecal administration 30 μg.
Where [5] appears, read: Biological Example 1, single administration 30 mg/kg p.o., 1 h after administration.
Setting [6] is: Biological Example 2, single administration p.o. (pregabalin 30 mg/kg, PD 198306 3–30 mg/kg), 1 h after administration.
[7] abbreviates: intraplantar administration 3 mg/100 μl.
Where [8] appears, read: intrathecal administration 1–30 μg.

For orientation: melting point means the temperature, or range, at which the solid turns liquid. The compound `Cc1cc(I)ccc1Nc1c(C(=O)NOCC2CC2)cc2nc[nH]c2c1F` (as salt: salt) [PD 254552, 7-fluoro-6-(4-iodo-2-methyl-phenylamino)-1H-benzoimidazole-5-carboxylic acid cyclopropylmethoxy-amide] registered a melting point of 168 to 172 °C.

Regarding `O=C(NOCC1CC1)c1ccc(F)c(F)c1Nc1ccc(I)cc1Cl` [PD 184352], the “magnitude of the antiallodynic effect compared with 100 μg of pregabalin, CCI model” value in data set [1] is “similar”. In the data set on MEK, this compound registered an affinity of 2 nM. Besides, in data set [2] (setting [4]), the “effect on static allodynia, CCI model” value is given as “blocked the maintenance of static allodynia” and the “time for which the antiallodynic effect was evident post-injection, CCI model” value is listed as 30 min.

On to `Cc1cc(I)ccc1Nc1c(C(=O)NOCC2CC2)cc(F)c(F)c1F` [PD 198306, N-Cyclopropylmethoxy-3,4,5-trifluoro-2-(4-iodo-2-methyl-phenylamino)-benzamide], for which the “effect on streptozocin-induced static allodynia” value in data set [3] (Biological Example 1, 30 mg/kg p.o., 1 h after the third administration (twice more on the following day)) was “significantly blocked”; in data set [3] (setting [5]), “had no effect”; in data set [3] (Biological Example 2, PD 198306 30 mg/kg p.o., after the third administration (3 doses over two days), 30 mg/kg), “significantly blocked; also recorded: transient effect”; in data set [3] (setting [6]), “had no effect”. Further, the “persistence of the effect on streptozocin-induced static allodynia” value in data set [3] (Biological Example 1, 30 mg/kg p.o., day after the third administration) is reported as “disappeared by the following day”. Besides, the results for the “effect on static allodynia, streptozocin model” value in data set [3] (setting [7]), in data set [3] (intrathecal administration 30 μg) and in data set [3] (setting [8]) were “had no effect”, “significantly blocked; also recorded: totally blocked” and “dose-dependently blocked”, respectively. Moreover, in data set [3] (intrathecal administration), the “minimum effective dose (MED), static allodynia, streptozocin model” value turned out to be 3 µg. Moreover, the “effect on static allodynia, CCI model” value in data set [2] (Biological Example 2, intrathecal administration 30 μg) is given as “significantly blocked; also recorded: totally blocked”; in data set [2] (setting [7]), “had no effect”; in data set [2] (setting [8]), “dose-dependently blocked”. In data set [2] (intrathecal administration), the “minimum effective dose (MED), static allodynia, CCI model” value was determined as 10 µg. Besides, the “effect on CCI-induced static allodynia” value in data set [2] (single or multiple administration 3–30 mg/kg p.o.) is listed as “neither a single or multiple administration of PD 198306 (3–30 mg/kg, p.o) had any effect; also recorded: had no effect”.

For orientation: IC50 means the concentration at which inhibition is half-maximal. With `Cc1cc(I)ccc1Nc1c(C(=O)O)cc2nc[nH]c2c1F` [PD 205293, 7-fluoro-6-(4-iodo-2-methyl-phenylamino)-1H-benzoimidazole-5-carboxylic acid], the melting point is 247 to 248 °C (dec.). The IC50 in the data set on colon 26 cells (read-out: colon 26 cells, IC50) was > 10000 nM.

`Cc1cc(I)ccc1Nc1c(C(=O)NOCC2CC2)cc2nc[nH]c2c1F` [PD 254552, 7-fluoro-6-(4-iodo-2-methyl-phenylamino)-1H-benzoimidazole-5-carboxylic acid cyclopropylmethoxy-amide]: the IC50 in the data set with colon 26 cells (read-out: colon 26 cells, 1 hour pretreatment, IC50) was 20 nM. In the data set with MEK, this compound gave an affinity of 5 nM. In addition, in data set [2] (setting [4]), the “effect on static allodynia, CCI model” value is recorded as “blocked the maintenance of static allodynia” and the “time for which the antiallodynic effect was evident post-injection, CCI model” value was 30 min.

As to `CC(C)C[C@H](CN)CC(=O)O` [pregabalin], the “effect on streptozocin-induced static allodynia” value in data set [3] (setting [5]) and in data set [3] (setting [6]) was “significantly blocked” each time. The “effect on CCI-induced static allodynia” value in data set [2] (single administration 30 mg/kg p.o., 1 h after administration) is “significantly blocked”.

The values are drawn from patent US7030119B1, “Method for treating chronic pain using MEK inhibitors” (Warner-Lambert Company, priority 1999, dated 2006).
